Laboratory results from ChEMBL document CHEMBL1121669, “Nucleosides. 114. 5'-O-Glucuronides of 5-fluorouridine and 5-fluorocytidine. Masked precursors of anticancer nucleosides” (1981).

System: P815
Experiment: Cytotoxicity against P815 tumor cell line
Assay type: functional
Details: Mus musculus, read-out: ID50 (the source's name)

| SMILES | IC50 |
| --- | --- |
| O=C([O-])C1OC(OC[C@H]2OC(n3cc(F)c(=O)[nH]c3=O)[C@H](O)[C@@H]2O)[C@H](O)[C@@H](O)[C@@H]1O.[Na+] (some centres not stated) | 6 mg/L |
| Nc1nc(=O)n(C2O[C@H](CO[C@@H]3OC(C(=O)[O-])[C@@H](O)[C@H](O)[C@H]3O)[C@@H](O)[C@H]2O)cc1F.[Na+] (some centres not stated) | 6 mg/L |
